The values that follow come from patent US9718819B2 (Merck Sharp & Dohme Corp., priority 2012, dated 2017).

Data set [1] concerns the target HIV-1 RT wild-type enzyme (Human immunodeficiency virus type 1 group M subtype B (isolate HXB2) (HIV-1), UniProt P04585). Nature of the data set: HIV-1 reverse transcriptase inhibitory activity (RT polymerase assay). As to conditions: HIV-1 RT wild-type enzyme 83 pM; RNA-dependent DNA polymerase activity; read-out: IC50. Type of data set: biochemical. The essentials:
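Biotinylated DNA primer annealed to HCV-derived RNA template (16.6 nM final hybrid), with 2 μM dATP/dGTP/dCTP and 66.6 nM Ru-dUTP, after 30 min compound–enzyme preincubation at room temperature; polymerization 90 min at 37 °C, EDTA quench. Product captured on avidin plates, electrochemiluminescence read; IC50 by four-parameter logistic fit versus DMSO and 1 μM efavirenz controls.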

Data set [2] is described as follows: Determination of PK parameters in dog after intravenous bolus. The conditions noted are these: male beagle dog, plasma, 50% DMSO in PEG400, read-out: Dog t1/2 (terminal half-life) (converted). Type of data set: in vivo, Male beagle dogs. Here is the method:
Determination of PK Parameters Male beagle dogs (weight 9-13 kg) were fasted overnight and housed individually. Water was provided ad lib throughout the study. Food was allowed approximately 4 hr post dose. […] The formulations were given intravenous as a bolus injection into the cephalic vein. The vein used for the dosing will not be used for the blood sample collection for the first 4 hr post-dose). […] EDTA was used as anticoagulant and approximately 0.5 mL aliquots of blood samples were collected at each time point. […] Test compound concentration in dog plasma was determined using a LC/MS/MS method. Typically the LC/MS/MS system consisted of an ACQUITY UPLC system with autosampler system refrigerated at 4° C. during analysis, and an API 4000 mass spectrometer. […] The mobile phase consisting of a solvent A (0.1% formic acid in water/acetonitrile (95/5)) and solvent B (0.1% formic acid in acetonitrile/water (95/5)) was delivered at a flow rate of 600 μL/min. […] Mass spectrometric detection of the analytes is accomplished using either an ESI or APCI interface operated in the positive or negative ionization mode. Analyte response is measured by multiple reaction monitoring (MRM) of transitions unique to each compound […]

Structures are written as SMILES.

As to `N#Cc1cc(Cl)cc(Oc2c(C(F)(F)F)ncn(Cc3cc(C(F)(F)F)c(=O)[nH]n3)c2=O)c1` [Example 6, 3-chloro-5-((6-oxo-1-((6-oxo-5-(trifluoromethyl)-1,6-dihydropyridazin-3-yl)methyl)-4-(trifluoromethyl)-1,6-dihydropyrimidin-5-yl)oxy)benzonitrile], the IC50 in data set [1] was 8 nM. Besides, the half-life in data set [2] is 72 h.

Regarding `N#Cc1cc(Cl)cc(Oc2c(C(F)(F)F)ncn(Cc3ccc(=O)[nH]n3)c2=O)c1` [Example 7, 3-chloro-5-((6-oxo-1-((6-oxo-1,6-dihydropyridazin-3-yl)methyl)-4-(trifluoromethyl)-1,6-dihydropyrimidin-5-yl)oxy)benzonitrile], the IC50 in data set [1] worked out at 8 nM. Moreover, in data set [2], the half-life was 28 h.

In the case of `N#Cc1cc(Cl)cc(Oc2c(C(F)(F)F)ncn(Cc3cc(-c4ccc(C#N)c(F)c4)c(=O)[nH]n3)c2=O)c1` [Example 68, 4-(6-((5-(3-chloro-5-cyanophenoxy)-6-oxo-4-(trifluoromethyl)pyrimidin-1(6H)-yl)methyl)-3-oxo-2,3-dihydropyridazin-4-yl)-2-fluorobenzonitrile], the IC50 in data set [1] stood at 7 nM. Also, the half-life in data set [2] is 25 h.

Take `N#Cc1cc(Cl)cc(Oc2c(C(F)(F)F)ncn(Cc3cc(-c4ccc(F)cc4)c(=O)[nH]n3)c2=O)c1` [Example 77, 3-chloro-5-((1-((5-(4-fluorophenyl)-6-oxo-1,6-dihydropyridazin-3-yl)methyl)-6-oxo-4-(trifluoromethyl)-1,6-dihydropyrimidin-5-yl)oxy)benzonitrile]: the half-inhibitory concentration (IC50) in data set [1] was 4 nM. The half-life in data set [2] was 79 h.

As for `CC(F)(F)c1cc(Cn2cnc(C(F)(F)F)c(Oc3cc(Cl)cc(C#N)c3)c2=O)n[nH]c1=O` [Example 104, 3-chloro-5-((1-((5-(1,1-difluoroethyl)-6-oxo-1,6-dihydropyridazin-3-yl)methyl)-6-oxo-4-(trifluoromethyl)-1,6-dihydropyrimidin-5-yl)oxy)benzonitrile], in data set [1], the IC50 is 15 nM. In addition, in data set [2], the half-life was 24 h.

As to `Cc1c(C#N)cc(F)cc1Oc1c(C(F)(F)F)ncn(Cc2ccc(=O)[nH]n2)c1=O` [Example 164, 5-fluoro-2-methyl-3-(6-oxo-1-((6-oxo-1,6-dihydropyridazin-3-yl)methyl)-4-(trifluoromethyl)-1,6-dihydropyrimidin-5-yloxy)benzonitrile], in data set [1], the IC50 turned out to be 7 nM.

Regarding `N#Cc1cccc(Oc2c(C(F)(F)F)ncn(Cc3cc(-c4ccc(F)cc4)c(=O)[nH]n3)c2=O)c1F` [Example 165, 2-fluoro-3-((1-((5-(4-fluorophenyl)-6-oxo-1,6-dihydropyridazin-3-yl)methyl)-6-oxo-4-(trifluoromethyl)-1,6-dihydropyrimidin-5-yl)oxy)benzonitrile], the IC50 in data set [1] was 3 nM.

Turning to `N#Cc1cc(Cl)cc(Oc2c(OC(F)F)ncn(Cc3cc(-c4ccc(F)cc4)c(=O)[nH]n3)c2=O)c1` [Example 166], the concentration for half-maximal inhibition (IC50) in data set [1] worked out at 3 nM.

For the molecule `N#Cc1cc(Oc2c(C(F)(F)F)ncn(Cc3cc(-c4ccc(F)cc4)c(=O)[nH]n3)c2=O)cc(OC(F)F)c1` [Example 167, 3-(difluoromethoxy)-5-((1-((5-(4-fluorophenyl)-6-oxo-1,6-dihydropyridazin-3-yl)methyl)-6-oxo-4-(trifluoromethyl)-1,6-dihydropyrimidin-5-yl)oxy)benzonitrile], the IC50 in data set [1] amounted to 6 nM.

On to `Cc1c(C#N)cc(F)cc1Oc1c(C(F)(F)F)ncn(Cc2cc(-c3ccc(F)cc3)c(=O)[nH]n2)c1=O` [Example 168, 5-fluoro-3-((1-((5-(4-fluorophenyl)-6-oxo-1,6-dihydropyridazin-3-yl)methyl)-6-oxo-4-(trifluoromethyl)-1,6-dihydropyrimidin-5-yl)oxy)-2-methylbenzonitrile], for which the IC50 in data set [1] turned out to be 5 nM.

`Cc1ncn(Cc2cc(-c3ccc(F)cc3)c(=O)[nH]n2)c(=O)c1Oc1cc(Cl)cc(C#N)c1` [Example 169, 3-chloro-5-((1-((5-(4-fluorophenyl)-6-oxo-1,6-dihydropyridazin-3-yl)methyl)-4-methyl-6-oxo-1,6-dihydropyrimidin-5-yl)oxy)benzonitrile]: in data set [1], the IC50 came out at 4 nM.

Turning to `CC(F)(F)c1ncn(Cc2cc(-c3ccc(F)cc3)c(=O)[nH]n2)c(=O)c1Oc1cc(Cl)cc(C#N)c1` [Example 170, 3-chloro-5-((4-(1,1-difluoroethyl)-1-((5-(4-fluorophenyl)-6-oxo-1,6-dihydropyridazin-3-yl)methyl)-6-oxo-1,6-dihydropyrimidin-5-yl)oxy)benzonitrile], in data set [1], the concentration for half-maximal inhibition (IC50) came to 5 nM.

On to `CC(F)(F)c1ncn(Cc2cc(-c3ccc(F)cc3)c(=O)[nH]n2)c(=O)c1Oc1cccc(C#N)c1F` [Example 171, 3-((4-(1,1-difluoroethyl)-1-((5-(4-fluorophenyl)-6-oxo-1,6-dihydropyridazin-3-yl)methyl)-6-oxo-1,6-dihydropyrimidin-5-yl)oxy)-2-fluorobenzonitrile], for which, in data set [1], the IC50 was determined as 3 nM.

With `N#Cc1cc(Cl)cc(Oc2c(C(F)(F)F)ccn(Cc3cc(C(F)F)n[nH]c3=O)c2=O)c1` [Example 172, 3-chloro-5-((1-((6-(difluoromethyl)-3-oxo-2,3-dihydropyridazin-4-yl)methyl)-2-oxo-4-(trifluoromethyl)-1,2-dihydropyridin-3-yl)oxy)benzonitrile], in data set [1], the IC50 stood at 5 nM.

On to `N#Cc1cc(Cl)cc(Oc2c(C(F)F)ncn(Cc3cc(C(F)F)n[nH]c3=O)c2=O)c1` [Example 173, 3-chloro-5-((4-(difluoromethyl)-1-((6-(difluoromethyl)-3-oxo-2,3-dihydropyridazin-4-yl)methyl)-6-oxo-1,6-dihydropyrimidin-5-yl)oxy)benzonitrile], for which, in data set [1], the IC50 was 6 nM.

Take `N#Cc1cccc(Oc2c(C(F)(F)F)ncn(Cc3cc(C(F)F)n[nH]c3=O)c2=O)c1F` [Example 174, 3-((1-((6-(difluoromethyl)-3-oxo-2,3-dihydropyridazin-4-yl)methyl)-6-oxo-4-(trifluoromethyl)-1,6-dihydropyrimidin-5-yl)oxy)-2-fluorobenzonitrile]: the IC50 in data set [1] stood at 5 nM.

As to `CC(F)(F)c1ncn(Cc2cc(C(F)F)n[nH]c2=O)c(=O)c1Oc1cc(Cl)cc(C#N)c1` [Example 175, 3-chloro-5-((4-(1,1-difluoroethyl)-1-((6-(difluoromethyl)-3-oxo-2,3-dihydropyridazin-4-yl)methyl)-6-oxo-1,6-dihydropyrimidin-5-yl)oxy)benzonitrile], in data set [1], the IC50 came to 3 nM.

Consider `Cc1ncn(Cc2cc(C(F)F)n[nH]c2=O)c(=O)c1Oc1cc(Cl)cc(C#N)c1` [Example 176, 3-chloro-5-((1-((6-(difluoromethyl)-3-oxo-2,3-dihydropyridazin-4-yl)methyl)-4-methyl-6-oxo-1,6-dihydropyrimidin-5-yl)oxy)benzonitrile], for which the IC50 in data set [1] amounted to 6 nM.

Regarding `CC(F)(F)c1ncn(Cc2cc(C(F)F)n[nH]c2=O)c(=O)c1Oc1cccc(C#N)c1F` [Example 177, 3-((4-(1,1-difluoroethyl)-1-((6-(difluoromethyl)-3-oxo-2,3-dihydropyridazin-4-yl)methyl)-6-oxo-1,6-dihydropyrimidin-5-yl)oxy)-2-fluorobenzonitrile], in data set [1], the IC50 turned out to be 17 nM.

On to `CC(F)(F)c1cc(Cn2cnc(C(F)(F)F)c(Oc3cccc(C#N)c3F)c2=O)c(=O)[nH]n1` [Example 178, 3-((1-((6-(1,1-difluoroethyl)-3-oxo-2,3-dihydropyridazin-4-yl)methyl)-6-oxo-4-(trifluoromethyl)-1,6-dihydropyrimidin-5-yl)oxy)-2-fluorobenzonitrile], for which, in data set [1], the IC50 turned out to be 9 nM.

For the molecule `CC(F)(F)c1cc(Cn2cnc(C(F)F)c(Oc3cc(Cl)cc(C#N)c3)c2=O)c(=O)[nH]n1` [Example 179, 3-chloro-5-((1-((6-(1,1-difluoroethyl)-3-oxo-2,3-dihydropyridazin-4-yl)methyl)-4-(difluoromethyl)-6-oxo-1,6-dihydropyrimidin-5-yl)oxy)benzonitrile], the 50% inhibitory concentration (IC50) in data set [1] came out at 8 nM.

As to `CC(F)(F)c1cc(Cn2cnc(C(C)(F)F)c(Oc3cc(Cl)cc(C#N)c3)c2=O)c(=O)[nH]n1` [Example 180, 3-chloro-5-((4-(1,1-difluoroethyl)-1-((6-(1,1-difluoroethyl)-3-oxo-2,3-dihydropyridazin-4-yl)methyl)-6-oxo-1,6-dihydropyrimidin-5-yl)oxy)benzonitrile], in data set [1], the IC50 was 5 nM.

Consider `Cc1ncn(Cc2cc(C(C)(F)F)n[nH]c2=O)c(=O)c1Oc1cc(Cl)cc(C#N)c1` [Example 181, 3-chloro-5-((1-((6-(1,1-difluoroethyl)-3-oxo-2,3-dihydropyridazin-4-yl)methyl)-4-methyl-6-oxo-1,6-dihydropyrimidin-5-yl)oxy)benzonitrile], for which the IC50 in data set [1] came to 12 nM.

As for `CC(F)(F)c1cc(Cn2cnc(C(C)(F)F)c(Oc3cccc(C#N)c3F)c2=O)c(=O)[nH]n1` [Example 182, 3-((4-(1,1-difluoroethyl)-1-((6-(1,1-difluoroethyl)-3-oxo-2,3-dihydropyridazin-4-yl)methyl)-6-oxo-1,6-dihydropyrimidin-5-yl)oxy)-2-fluorobenzonitrile], the IC50 in data set [1] was 9 nM.

As usually defined, the IC50 is the concentration that gives 50% inhibition.
